# Assay: in vitro
# Settings: human, hela cells, % viability
row,SMILES,"viability at 28.5 h, 10 µM"
1,CCOCCn1c(=O)c2c(nc3oc(C(C)(C)C)cn32)n(C)c1=O [CBK307567],103%
2,Cc1c(C)n(Cc2ccco2)c2ncnc(SCCC(=O)O)c12 [CBK307569],105%
3,CNC(=O)CN(C)C(=O)c1coc(COc2ccc3sc(C)nc3c2)n1 [CBK307571],83.1%
4,COc1cccc(C(=O)NCCC(=O)N2CCc3ccccc3C2)c1 [CBK307575],84.3%
5,COc1ccc(CNC(=O)c2cc(S(=O)(=O)N3CCCC3)cs2)cc1 [CBK307576],93.6%
6,NC(=O)c1c(NC(=O)NCc2cccnc2)sc2c1CCC2 [CBK307578],70.3%
7,Cn1cnc2cc(NC(=O)NCCN3CCCC(CO)C3)ccc21 (centres unmarked) [CBK307582],107%
8,O=C(NCCc1ccccc1)C1CCN(C(=O)c2cccc(F)c2)CC1 [CBK307583],82.2%
9,Cn1cnnc1CCC(=O)NCC1CCN(c2ccccc2F)C1 (centres unmarked) [CBK307587],76.5%
10,Cc1nnc(NC(=O)C2CCN(C(=O)c3cccc(F)c3)CC2)s1 [CBK307588],93.2%
11,COc1ccc(CNC(=O)c2cc(S(=O)(=O)N3CCCCC3)cs2)cc1 [CBK307590],85.9%
12,CCOC(=O)c1c(NC(=O)NCc2ccncc2)sc2c1CCC2 [CBK307591],81.6%
13,c1cnc(NCc2cc3n(n2)CCN(CC2CCCCC2)C3)cn1 [CBK307592],80%
14,CC(C)n1cc(C(=O)NCc2cccnc2N(C)C2CCCCC2)cn1 [CBK307593],105%
15,Cc1c(C)n(Cc2ccco2)c2ncnc(N3CCC(C(=O)O)CC3)c12 [CBK307599],99.1%
16,CCCCc1ccc(-c2nccn2CC2CN(C(C)=O)CCO2)s1 (centres unmarked) [CBK307600],110%
17,Cc1nc(N2CCOCC2)cc(N2CCN(C(=O)C3CCCC3)CC2)n1 [CBK307602],87.5%
18,Cc1ccc2c(c1)C(NC(=O)C1CCN(S(C)(=O)=O)CC1)CC(C)(C)O2 (centres unmarked) [CBK307604],109%
19,COCC1(C(=O)N2CC(=O)N(c3ccc(C)cc3)CC2C)CCC1 (centres unmarked) [CBK307606],89.1%
20,CCCNC(=O)c1ccc(NC(=O)NC(CC)c2ccnn2C)c(C)c1 (centres unmarked) [CBK307608],104%
21,Cc1cc(C)n(Cc2cc(C(=O)NCC(C)Oc3cccnc3)n[nH]2)n1 (centres unmarked) [CBK307609],85.9%
22,COCCNC(=O)c1cc2n(n1)C(C(F)(F)F)CC(c1ccccc1)N2 (centres unmarked) [CBK307610],114%

row,SMILES,"viability at 28.5 h, 10 µM"
1,CSc1ncc(CNC(=O)C2CCOc3ccccc3C2)n1C (centres unmarked) [CBK307611],82.5%
2,Cc1scnc1CN1CCn2nc(C(O)Cc3ccccc3)cc2C1 (centres unmarked) [CBK307612],90.9%
3,Cc1cc(C)n(-c2ccc3nnc(CCC(=O)O)n3n2)n1 [CBK307616],97%
4,CCCc1cc(C(=O)N2CCNCC2C(=O)N2CCN(C)CC2)ccn1 (centres unmarked) [CBK307619],97.5%
5,Cc1c(-c2cccc(C(=O)N(CCO)C3CCS(=O)(=O)C3)c2)cnn1C (centres unmarked) [CBK307621],86.5%
6,Cc1nc(NC(=O)Cn2nc(N3CCSCC3)ccc2=O)sc1C [CBK307622],98.3%
7,O=C(Cn1nc(N2CCSCC2)ccc1=O)Nc1ccccc1 [CBK307623],97.2%
8,Cc1cc(OCC(=O)N2CCNC(=O)C2)c2c(C)c(C)c(=O)oc2c1 [CBK307624],94.7%
9,CC(=O)c1cccc(NC(=O)Cn2nc(N3CCSCC3)ccc2=O)c1 [CBK307625],102%
10,CCOC(=O)c1cnc2ccc(Cl)cc2c1N1CCOCC1 [CBK307627],99.2%
11,Cc1cc(C)n(-c2ccc3nnc(CCCC(=O)O)n3n2)n1 [CBK307630],87.1%
12,COc1ccc2c(c1)C(NC(=O)C1CCCN(C)C1)CC(C)(C)O2 (centres unmarked) [CBK307631],113%
13,CCOc1ccc(NC(=O)N(CCO)Cc2nccn2C)cc1C#N [CBK307634],82.6%
14,COCCN1CCN(C(=O)NCCc2c(C)[nH]c3ccc(Cl)cc23)CC1 [CBK307637],85%
15,CCn1nc(CO)c2c1CCN(CC(=O)NCc1cccs1)C2 [CBK307638],92.8%
16,Cc1cccn2c(CN3CCC(O)CC3)c(C(=O)N3CCCCC3)nc12 [CBK307639],104%
17,CN1CCN(CC2(Cn3ccnc3-c3ccc(C(=O)O)cc3)CC2)CC1 [CBK307641],75.1%
18,CSc1cccc(CN2C[C@H]3CN(C(=O)C4CCC4)C[C@@]3(C(=O)O)C2)c1 [CBK307645],88.4%
19,COc1cncc(C(NC(=O)c2ccc3c(c2)CCC3)[C@H]2C[C@H](O)C2)c1 (some centres unmarked) [CBK307646],105%
20,Cc1cc(C)n(CC(=O)N[C@H]2CC[C@H]2N)c(=O)n1 [CBK307647],91.9%
21,Cc1ncccc1OC1(C(=O)NCc2cn3c(n2)SCC3)CCNCC1 [CBK307649],103%
22,Cc1nc(CCNC(=O)N(Cc2cnn(C)c2)C2CC2)nc2c1CCC2 [CBK307650],86.1%

row,SMILES,"viability at 28.5 h, 10 µM"
1,Cc1cc(=O)[nH]c(CCNc2cc([C@H]3C[C@@H](N)C3)nc(C3CC3)n2)n1 [CBK307651],103%
2,CN1CCCCCC1c1nc(-c2ccccc2)nn1CCCO (centres unmarked) [CBK307653],95.9%
3,CCOC(=O)C1(Cc2ccc(F)cc2F)CCCN(S(=O)(=O)CC)C1 (centres unmarked) [CBK307655],92.6%
4,CCCN1CC2(CCN(Cc3nccn3C)CC2)CC1C(=O)O (centres unmarked) [CBK307658],83.2%
5,Cc1ccc(-c2noc(C(C)NC(=O)C3(Cn4ccnc4)CC3)n2)cc1 (centres unmarked) [CBK307661],113%
6,CCCn1cnnc1CN(C)C(=O)NCCc1nc2ccccc2s1 [CBK307663],98.2%
7,CCCN1CC(NS(=O)(=O)c2ccc3oc(=O)n(C)c3c2)CC1=O (centres unmarked) [CBK307664],92.6%
8,CC(c1ccncn1)N(C)C(=O)NCc1cccc(CN(C)C)c1 (centres unmarked) [CBK307667],89.9%
9,CCc1nc(CCn2ccc3nc(OC)c(C#N)cc3c2=O)no1 [CBK307668],94.1%
10,Cn1ncnc1CCNC(=O)N1CCCN(Cc2cccs2)CC1 [CBK307670],95.8%
11,CN(CC1COCCO1)C(=O)c1cc(Cn2ccc3ccccc32)[nH]n1 (centres unmarked) [CBK307673],111%
12,Cc1nc(C2CC(O)C2)cc(N2CCC(C(=O)N3CCOCC3)CC2)n1 (centres unmarked) [CBK307675],102%
13,COc1nccc(N2CCN(C)C3(CCNC(=O)CC3)C2)c1C#N (centres unmarked) [CBK307676],116%
14,CSc1ncc(C(=O)N2CCN3CCN(C)CC3C2)c(=O)[nH]1 (centres unmarked) [CBK307677],104%
15,O=c1cc(N2CCCCC2)cnn1Cc1nccs1 [CBK307678],87.4%
16,Cc1c(C(=O)NC2CCN(c3ncccc3C#N)CC2)ccn1C [CBK307681],103%
17,COCCNc1cc(-c2cccc(F)c2C(N)=O)c2cc[nH]c2n1 [CBK307682],94.2%
18,Cc1nc2cc(OCc3nc(C(=O)N(CCO)CCO)co3)ccc2s1 [CBK307684],89.9%
19,COc1ccc(Cc2nc(C3CC3)n(CC(F)(F)F)n2)cc1 [CBK307686],94.9%
20,Cc1ccc2[nH]c(CN3CCC(O)C3)cc(=O)c2c1 (centres unmarked) [CBK307690],91.5%
21,Cn1ncc(N2CCC(CNC(=O)COc3cccc(F)c3)C2)cc1=O (centres unmarked) [CBK307692],87.1%

# Reference: paper PMC12040169 (PLOS Biology, 2025)
